Blank lines part the entries; values can stand above or below the compound they belong to.
Assays:
[1] = Solubility determination in 0.01 N aqueous HCl (gravimetric, suspensions stirred, sampled after 30 min); assay type: physicochemical; conditions: 0.01 N aqueous HCl at 25 ± 0.1 °C, samples taken after 30 min, monohydrochloride
Experimental: The solubility data of form E of the present invention and forms A and C of EP1632232 B1 in 0.01 N aqueous HCl at 25 ± 0.1 °C are presented in table 1. Table 1: Solubility data in 0.01 N aqueous HCl at 25 ± 0.1 °C Suspensions of forms A, C and E in 0.01 N aqueous HCl were stirred in closed vessels with a diameter of 25 mm in a thermostatic water bath at 25 ± 0.1 °C. Before the solute was added the solvent was equilibrated to the temperature. Three samples of each modification were taken with […] filter holders attached to volumetric pipettes (2 mL) via a small glass tube after 30 min. They were sucked through Millipore membrane filters (0.45 μm) and 2 mL of the clear solution were poured in vessels which had been dried and tared before. The hydrochloric acid was evaporated in a drying chamber at 60 °C for approximately 15 h before the temperature was further increased to 80 °C for approximately 3 h. To remove residue water, the vessels were subsequently dried at 110 °C and 60 mbar for approximately 3 h. Afterwards the vials with the residue were cooled to room temperature in an exsiccator and weighed on an analysis balance (Mettler AT250). The difference in weight to the tare weight was then measured to determine the solubilities.

[2] = Water content at defined relative humidity; assay type: physicochemical

Solubility ([1]; listed as E): 270 µg/mL | water ([2]; at a relative humidity of about 0 %): about 0% | water ([2]; at a relative humidity of about 90 %): about 0.8%
Structure (SMILES): Cc1cc(C=CC#N)cc(C)c1Nc1ccnc(Nc2ccc(C#N)cc2)n1.Cl [Form E, 4-[[4-[[4-(2-Cyanoethenyl)-2,6-dimethylphenyl]amino]-2-pyrimidinyl]amino]benzonitrile monohydrochloride]

Solubility ([1]; listed as A): 80 µg/mL
Structure (SMILES): Cc1cc(C=CC#N)cc(C)c1Nc1ccnc(Nc2ccc(C#N)cc2)n1.Cl [Form A, 4-[[4-[[4-(2-Cyanoethenyl)-2,6-dimethylphenyl]amino]-2-pyrimidinyl]amino]benzonitrile monohydrochloride]

Solubility ([1]; listed as C): 100 µg/mL
Structure (SMILES): Cc1cc(C=CC#N)cc(C)c1Nc1ccnc(Nc2ccc(C#N)cc2)n1.Cl [Form C, 4-[[4-[[4-(2-Cyanoethenyl)-2,6-dimethylphenyl]amino]-2-pyrimidinyl]amino]benzonitrile monohydrochloride]
